In ChEMBL document CHEMBL1123898, “Antitumor imidazotetrazines. 14. Synthesis and antitumor activity of 6- and 8-substituted imidazo[5,1-d]-1,2,3,5-tetrazinones and 8-substituted pyrazolo[5,1-d]-1,2,3,5-tetrazinones” (1987) one finds T/C and Survivors data, which are given here for five compounds.

Holding throughout (format): functional
Assay [1] concerns L1210. In words: Antitumor activity was assessed against L1210 tumors in B6D2F1 mouse by inoculation of 10e5 tumor cells through iv route and mean death of animals (treated/control) was reported at 5 mg/kg peroral dose. The settings on record: route oral.
Assay [2] relates to L1210. In words: Antitumor activity was assessed against L1210 tumors in B6D2F1 mouse by inoculation of 10e5 tumor cells through iv route and mean death of animals (treated/control) was reported at 2.5 mg/kg peroral dose. The settings on record: route oral.
Assay [3] can be described thus: Antitumor activity was assessed against TLX5 tumors in CBA/CA mouse by inoculation of 2 x 10e5 tumor cells through sc route and mean death of animals (treated/control) was reported at 10 mg/kg dose. The settings on record: route subcutaneous.
The nature of assay [4]: Antitumor activity was assessed against TLX5 tumors in CBA/CA mouse by inoculation of 2 x 10e5 tumor cells through sc route and number of Survivors to duration was reported at 20 mg/kg ip dose; 5/5. The settings on record: route subcutaneous.
Assay [5] can be described thus: Antitumor activity was assessed against TLX5 tumors in CBA/CA mouse by inoculation of 2 x 10e5 tumor cells through sc route and mean death of animals (treated/control) was reported at 20 mg/kg dose. The settings on record: route subcutaneous.
Assay [6] deals with L1210. Description: Antitumor activity was assessed against L1210 tumors in B6D2F1 mouse by inoculation of 10e5 tumor cells through iv route and mean death of animals (treated/control) was reported at 20 mg/kg peroral dose. The settings on record: route oral.
For assay [7], the system named is L1210. Description: Antitumor activity was assessed against L1210 tumors in B6D2F1 mouse by inoculation of 10e5 tumor cells through iv route and number of Survivors to duration was reported at 10 mg/kg peroral dose; 1/7. The settings on record: route oral.
Assay [8] deals with L1210. Description: Antitumor activity was assessed against L1210 tumors in B6D2F1 mouse by inoculation of 10e5 tumor cells through iv route and mean death of animals (treated/control) was reported at 10 mg/kg peroral dose. The settings on record: route oral.
Assay [9] in a line: Antitumor activity was assessed against TLX5 tumors in CBA/CA mouse by inoculation of 2 x 10e5 tumor cells through sc route and mean death of animals (treated/control) was reported at 40 mg/kg dose. The settings on record: route subcutaneous.
Assay [10] is described as follows: Antitumor activity was assessed against TLX5 tumors in CBA/CA mouse by inoculation of 2 x 10e5 tumor cells through sc route and mean death of animals (treated/control) was reported at 5 mg/kg dose. The settings on record: route subcutaneous.
Assay [11] has as its system L1210. Description: Antitumor activity was assessed against L1210 tumors in B6D2F1 mouse by inoculation of 10e5 tumor cells through iv route and number of Survivors to duration was reported at 20 mg/kg peroral dose; 6/7. The settings on record: route oral.
Assay [12] deals with L1210. Description: Antitumor activity was assessed against L1210 tumors in B6D2F1 mouse by inoculation of 10e5 tumor cells through intravenous route and mean death of animals (treated/control) was reported at 40 mg/kg peroral dose. The settings on record: route oral.
Assay [13] has as its system L1210. In words: Antitumor activity was assessed against L1210 tumors in B6D2F1 mouse by inoculation of 10e5 tumor cells through intravenous route and mean death of animals (treated/control) was reported at 80 mg/kg peroral dose. The settings on record: route oral.
The test system of assay [14] is L1210. Description: Antitumor activity was assessed against L1210 tumors in B6D2F1 mouse by inoculation of 10e5 tumor cells through intravenous route and mean death of animals (treated/control) was reported at 160 mg/kg peroral dose. The settings on record: route oral.
In assay [15] the test system is L1210. Description: Antitumor activity was assessed against L1210 tumors in B6D2F1 mouse by inoculation of 10e5 tumor cells through intravenous route and mean death of animals (treated/control) was reported at 20 mg/kg peroral dose. The settings on record: route oral.
In assay [16] the test system is L1210. In words: Antitumor activity was assessed against L1210 tumors in B6D2F1 mouse by inoculation of 10e5 tumor cells through intravenous route and mean death of animals (treated/control) was reported at 10 mg/kg peroral dose. The settings on record: route oral.
Assay [17] concerns L1210. In words: Antitumor activity was assessed against L1210 tumors in B6D2F1 mouse by inoculation of 10e5 tumor cells through intravenous route and number of Survivors to duration was reported at 40 mg/kg peroral dose; 5/7. The settings on record: route oral.
Assay [18] is described as follows: Antitumor activity was assessed against TLX5 tumors in CBA/CA mouse by inoculation of 2 x 10e5 tumor cells through sc route and mean death of animals (treated/control) was reported at 40 mg/kg ip dose. The settings on record: route subcutaneous.
A short description of assay [19]: Antitumor activity was assessed against TLX5 tumors in CBA/CA mouse by inoculation of 2 x 10e5 tumor cells through sc route and mean death of animals (treated/control) was reported at 80 mg/kg ip dose. The settings on record: route subcutaneous.
In assay [20] the test system is L1210. In words: Antitumor activity was assessed against L1210 tumors in B6D2F1 mouse by inoculation of 10e5 tumor cells through iv route and number of Survivors to duration was reported at 200 mg/kg po dose; 10/10.
In assay [21] the test system is L1210. Description: Antitumor activity was assessed against L1210 tumors in B6D2F1 mouse by inoculation of 10e5 tumor cells through iv route and mean death of animals (treated/control) was reported at 50 mg/kg po dose.
Assay [22] in a line: Antitumor activity was assessed against TLX5 tumors in CBA/CA mouse by inoculation of 2 x 10e5 tumor cells through sc route and mean death of animals (treated/control) was reported at 160 mg/kg ip dose. The settings on record: route subcutaneous.
A short description of assay [23]: Antitumor activity was assessed against TLX5 tumors in CBA/CA mouse by inoculation of 2 x 10e5 tumor cells through sc route and number of Survivors to duration was reported at 160 mg/kg ip dose; 1/5. The settings on record: route subcutaneous.
Assay [24] can be described thus: Antitumor activity was assessed against TLX5 tumors in CBA/CA mouse by inoculation of 2 x 10e5 tumor cells through sc route and mean death of animals (treated/control) was reported at 320 mg/kg ip dose. The settings on record: route subcutaneous.
The subject of assay [25] is L1210. Description: Antitumor activity was assessed against L1210 tumors in B6D2F1 mouse by inoculation of 10e5 tumor cells through iv route and mean death of animals (treated/control) was reported at 200 mg/kg po dose.
The test system of assay [26] is L1210. In words: Antitumor activity was assessed against L1210 tumors in B6D2F1 mouse by inoculation of 10e5 tumor cells through iv route and mean death of animals (treated/control) was reported at 100 mg/kg po dose.
Assay [27] concerns L1210. In words: Antitumor activity was assessed against L1210 tumors in B6D2F1 mouse by inoculation of 10e5 tumor cells through iv route and number of Survivors to duration was reported at 100 mg/kg po dose; 5/7.
Assay [28] deals with L1210. In words: Antitumor activity was assessed against L1210 tumors in B6D2F1 mouse by inoculation of 10e5 tumor cells through iv route and number of Survivors to duration was reported at 200 mg/kg po dose; 1/7.
Assay [29] relates to L1210. Description: Antitumor activity was assessed against L1210 tumors in B6D2F1 mouse by inoculation of 10e5 tumor cells through iv route and mean death of animals (treated/control) was reported at 25 mg/kg po dose.
A short description of assay [30]: Antitumor activity was assessed against TLX5 tumors in CBA/CA mouse by inoculation of 2 x 10e5 tumor cells through sc route and mean death of animals (treated/control) was reported at 10 mg/kg ip dose. The settings on record: route subcutaneous.
Assay [31] can be described thus: Antitumor activity was assessed against TLX5 tumors in CBA/CA mouse by inoculation of 2 x 10e5 tumor cells through sc route and mean death of animals (treated/control) was reported at 20 mg/kg ip dose. The settings on record: route subcutaneous.

As to `NS(=O)(=O)c1ncn2c(=O)n(CCCl)nnc12`, the T/C in the assay on L1210 [1] is 207%; in the assay on L1210 [2], 136%; in assay [3], 160%; in assay [5], greater than 476%; with L1210 [6], greater than 605%; in the assay with L1210 [8], greater than 376%. Further, the T/C in assay [9] turned out to be 119%; in assay [10], 121%. Further, the Survivors in assay [4] was found to be 5; in the assay on L1210 [7] it was 1; with L1210 [11] it was 6.
In the case of `O=C(NCc1ccccc1)c1ncn2c(=O)n(CCCl)nnc12`, the figures for the T/C in the assay on L1210 [12], with L1210 [13] and in the assay with L1210 [14] were 100%, 130% and 183%, respectively.
Regarding `CS(=O)(=O)c1cnn2c(=O)n(CCCl)nnc12`, the T/C in the assay on L1210 [12] is recorded as greater than 447%; in the assay with L1210 [15] it was 307%; in the assay on L1210 [16], 155%. The compound also came in with a Survivors with L1210 [17] of 5.
On to `CN(C)C(=O)c1cnn2c(=O)n(CCCl)nnc12`, for which the T/C in assay [18] is 109%; in assay [19], 131%; in the assay with L1210 [21] it was 144%; in assay [22], greater than 248%; in [24] it was 48%; in the assay on L1210 [25], greater than 600%. The compound also displayed a T/C with L1210 [26] of 250%. Besides, the Survivors is recorded as 10 in the assay on L1210 [20] and 1 in assay [23].
In the case of `NC(=O)c1cnn2c(=O)n(CCCl)nnc12`, the T/C is listed as 116% in assay [18]; 143% in assay [19]; 186% in the assay with L1210 [21]; 221% in [22]; 363% in the assay on L1210 [25]; 120% with L1210 [29]. For the same compound, the T/C in the assay on L1210 [26] is greater than 530%; in assay [30] it was 98%; in assay [31], 123%. Besides, the Survivors amounted to 5 in the assay with L1210 [27] and 1 in the assay on L1210 [28].
